Assay in all cases: NCI anticancer screen, dose series, 48 h
The test system of test [1] is BT-549 breast.
In test [2] the test system is CAKI-1 renal.
For test [3], the system named is DU-145 prostate.
Test [4] concerns HS 578T breast.
Test [5] relates to NCI-H23 lung.
For test [6], the system named is NCI-H522 lung.
In test [7] the test system is NCI/ADR-RES ovarian.
For test [8], the system named is OVCAR-4 ovarian.
Test [9] deals with PC-3 prostate.
Test [10] concerns SK-MEL-2 melanoma.
Test [11] concerns SNB-19 CNS.
The subject of test [12] is SW-620 colon.

“And” between values parts separate entries of the source, which are not always exact repeats. Identical values can stand only once.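 Dose response: 5 concentrations. Exposure: 48 h. Format: 96-well plates. Endpoint: linear interpolation; highest concentration if not reached. GI50 = concentration required for 50% inhibition of growth. TGI marks complete inhibition of growth.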 Where only a bound is given, the exact number is not on record here.

Turning to `COC(=O)[C@@H](NC(=O)N(Cc1ccccc1)C[C@H](CC(C)C)NC(=O)[C@@H](NC(=O)OC(C)(C)C)C(C)C)C(C)C`, the TGI in test [1], in [2], in [3], in test [4], in test [5] and in [6] was greater than 100 µM throughout. In addition, the TGI in test [7], in [8], in test [9], in test [10], in [11] and in test [12] was greater than 100 µM each time.
`Cn1nnnc1SC(F)(F)c1nc2ccccc2o1`: the TGI in test [1], in test [2], in test [3], in [4], in [5] and in test [6] was greater than 100 µM each time. Moreover, the TGI in test [7], in test [8], in [9], in [10] and in test [12] was greater than 100 µM throughout.
`Cc1ccc(C(=O)NCc2ccccc2)cc1N=NN(C)C`: the TGI in test [1] is greater than 100 µM; in test [2], greater than 100 µM; in [3] it was greater than 100 µM; in test [4], greater than 100 µM; in [5], greater than 100 µM; in test [6], 90.1 µM. For the same compound, the TGI in [7], in [8], in test [9], in test [10], in test [11] and in test [12] was greater than 100 µM throughout.
Turning to `N/C(=N\S(=O)(=O)c1ccc(-c2ncccc2C(F)(F)F)s1)Nc1ccc(Cl)cc1`, the TGI worked out at 29 µM in [1]; 36.4 µM in test [3]; 40.5 µM in test [4]; 27.5 µM in [5]; 23.6 µM in test [6]; 41.1 µM in [7]. Besides, the TGI in test [8] was found to be 42.9 µM; in test [9], 25.8 µM; in test [10], 29.3 µM; in [11], 34.4 µM; in test [12] it was 35.6 µM.
In the case of `COCCn1cnc2c(Cl)nc(Nc3ccccc3)nc21`, the TGI in test [1] was 99 µM; in test [3], greater than 100 µM; in test [4], 61.6 µM; in [5], greater than 100 µM; in test [7], greater than 100 µM; in test [8], 46.7 µM. The TGI in test [9] was 56.4 µM; in test [10], 47.4 µM; in test [11], greater than 100 µM; in test [12] it was greater than 100 µM.
In the case of `CCC1CC(O)c2c(O)c3c(c(O)c2C1O)C(=O)c1cccc(O)c1C3=O` (centres undefined) (tested in a mixture with another compound), the TGI in test [1] was 0.0704 µM; in test [2], 0.0706 µM; in test [3] it was 0.135 µM and 0.651 µM; in test [4], 0.331 µM; in test [5] it was 0.0795 µM and 0.186 µM; in test [6] it was 0.0658 µM. Further, the TGI in [7] is 0.295 µM; in [8], 0.0932 µM and 0.0821 µM; in [9], 0.0749 µM and 0.159 µM; in test [10] it was 0.0457 µM; in test [11], 0.929 µM and 1.34 µM; in test [12], 0.0707 µM and 0.128 µM. Also, the GI50 in test [7] was 10.1 nM.
As to `O=c1cc(NNc2cccc(Cl)c2)[nH]c(=O)[nH]1`, the TGI in test [1] is greater than 100 µM; in [2], 36.9 µM; in test [3], greater than 100 µM; in test [4], greater than 100 µM; in [5], greater than 100 µM; in [6], 34.4 µM. Also, the TGI in [7] was greater than 100 µM; in [8] it was greater than 100 µM; in test [9], greater than 100 µM; in test [10], greater than 100 µM; in test [11], greater than 100 µM; in test [12], 33 µM.
In the case of `CCOc1cc(NC(C)=O)ccc1C(=O)NNS(=O)(=O)c1ccc(NC(C)=O)cc1`, the TGI in test [1], in test [2], in test [3], in test [4], in test [5] and in test [6] was greater than 100 µM each time. Moreover, the TGI in test [7] was greater than 100 µM; in test [8], greater than 100 µM; in test [9] it was greater than 100 µM; in test [10], 95.2 µM; in [11] it was greater than 100 µM; in [12] it was greater than 100 µM.
Consider `CC(=O)SC(C[N+](=O)[O-])c1ccc2c(c1)OCO2` (centres undefined), for which the TGI came out at 14.2 µM in test [1]; 18.6 µM in [2]; 33.7 µM in test [3]; 45.3 µM in [4]; 34.6 µM in test [5]; 10.4 µM in [6]. Also, the TGI in [7] was found to be 35.5 µM; in [8], 23.1 µM; in test [9] it was 28.9 µM; in test [10], 14.8 µM; in test [11] it was 21.5 µM; in test [12], 11.9 µM.
In the case of `c1ccc2c3[nH]c(c2c1)=Nc1ccc(cc1)-c1nc2ccc(cc2o1)N=c1[nH]c(c2ccccc12)=Nc1ccc2nc(oc2c1)-c1ccc(cc1)N=3`, the TGI in test [1], in test [2], in test [3], in test [4], in test [5] and in test [6] was greater than 100 µM in each case. Besides, the TGI in test [7] was greater than 100 µM; in [9], greater than 100 µM; in test [10] it was greater than 100 µM; in test [11] it was 81 µM; in [12], greater than 100 µM.
As for `CC(NC(=O)c1c(O)[nH]c(=S)[nH]c1=O)c1ccc([N+](=O)[O-])cc1` (centres undefined), the TGI in test [1], in [2], in test [3], in [4], in [5] and in test [8] was greater than 100 µM each time. The TGI in test [9], in test [10], in test [11] and in test [12] was greater than 100 µM each time.
With `CCOP(=O)(OCC)/C(C#N)=C/c1ccc(-c2cc(C(F)(F)F)cc(C(F)(F)F)c2)o1`, the TGI is 44.9 µM in test [1]; 29.1 µM in test [3]; greater than 100 µM in test [4]; 31.1 µM in [5]; 24.6 µM in test [6]; 23.6 µM in [7]. Further, the TGI in test [9] stood at 24 µM; in test [10], 38.8 µM; in test [11] it was 32 µM; in [12], 28.2 µM.
Take `CCCCC1Cc2cc(O)ccc2-c2nc3cc(O)ccc3n21` (centres undefined) (tested in a mixture with another compound): the TGI in test [1] was 41.6 µM; in test [2], 89 µM; in test [3], greater than 100 µM; in [4], 35.1 µM; in [5] it was 72.5 µM; in test [6], 25 µM. For the same compound, the TGI in [7] stood at 49.4 µM; in test [8] it was 30.8 µM; in test [9], 53.3 µM; in test [11], 26.3 µM; in test [12], 39.5 µM.
Turning to `O=C1CC(=O)NC(=NN2C(=O)/C(=C/c3ccc(Cl)c(Cl)c3)N=C2c2ccccc2)N1`, the TGI in [1] was 49.2 µM; in test [2], greater than 100 µM; in [3] it was greater than 100 µM; in test [4], 50.9 µM; in test [5], greater than 100 µM; in test [6] it was 86 µM. The TGI in [7] is 54.2 µM; in test [8] it was greater than 100 µM; in test [9], 72.7 µM; in test [10], 34.4 µM; in test [12], greater than 100 µM.
`CCOC(=O)C(NC(=O)c1ccccc1)(N1CCN(c2cc3c(cc2F)c(=O)c(C(=O)O)cn3C2CC2)CC1)C(F)(F)F` (centres undefined): the TGI in [1] was 50.9 µM; in test [2], 50.2 µM; in test [3], greater than 100 µM; in test [4], 66.3 µM; in test [5] it was 32.9 µM; in test [8] it was 63.4 µM. Further, the TGI in test [9] is 60.2 µM; in [10], 38.9 µM; in test [11], greater than 100 µM; in [12], 51.1 µM.
As for `COc1ccc2nc(-c3ccccc3)c(=O)[nH]c2c1`, the TGI in test [1], in test [2], in test [3], in test [4], in [5] and in test [6] was greater than 100 µM in each case. For the same compound, the TGI in [7], in [9], in [11] and in test [12] was greater than 100 µM throughout.
With `CC(=O)OCC1OC(n2c(C)c(N=Nc3ccc(Cl)cc3)c(C)c(C#N)c2=S)C(OC(C)=O)C(OC(C)=O)C1OC(C)=O` (centres undefined), the TGI is 52.3 µM in test [1]; greater than 100 µM in test [2]; greater than 100 µM in test [3]; 68 µM in test [4]; greater than 100 µM in test [5]; greater than 100 µM in [7]. Besides, the TGI in test [8] is greater than 100 µM; in [9], greater than 100 µM; in [10], 92.1 µM; in test [11], greater than 100 µM; in [12] it was greater than 100 µM.
Regarding `CC(=O)O[C@@]12CO[C@@H]1CC(O)[C@@]1(C)C(=O)[C@H](O)C3=C(C)C(O)C[C@@](O)(C(OC(=O)c4ccccc4)C12)C3(C)C` (some centres undefined), the TGI in test [1] is greater than 100 µM; in test [2], greater than 100 µM; in [3], greater than 100 µM; in test [4] it was 1.18 µM; in test [5], greater than 41.9 µM; in test [7], greater than 100 µM. The TGI in [8], in test [9], in [11] and in test [12] was greater than 100 µM throughout.
Take `CC(=O)c1c(N=[N+]=[N-])c2cccc3c2n(c1=O)CCC3`: the TGI stood at 39.8 µM in test [1]; 57.8 µM in [2]; 78.3 µM in [4]; 45.6 µM in test [5]; 28.1 µM in test [6]; 38.2 µM in test [7]. The TGI in test [8] is 52.3 µM; in test [9], 38.6 µM; in test [10], 75.2 µM; in [11], greater than 100 µM; in [12] it was 30.7 µM.
For `C=C1CC[C@H]2C(=O)OC(c3ccoc3)C[C@]2(C)C/C=C\C=C/1C(=O)OC` (some centres undefined), the TGI in test [1], in test [2], in test [4], in [5], in test [7] and in [8] was greater than 25 µM each time. In addition, the TGI in test [9], in test [10], in test [11] and in test [12] was greater than 25 µM in each case.
Take `O=Cc1ccc(-c2ccc(-c3ccc(CO)s3)o2)s1`: the TGI in test [1] was 67.9 µM; in test [3], greater than 71.6 µM; in [4], 59.5 µM; in [5], greater than 76.7 µM; in test [6], 47.7 µM; in test [7], 40.4 µM. Also, the TGI was greater than 100 µM in test [8]; greater than 100 µM in test [9]; 97 µM in [10]; greater than 100 µM in test [11]; greater than 100 µM in test [12].
For the compound `O=C1C=C(Nc2ccc(S(=O)(=O)Nc3nccs3)cc2)c2ccccc2C1=O`, the TGI in test [1] was 40.8 µM; in [2] it was 82.9 µM; in [4], 75.1 µM; in test [5], greater than 100 µM; in [6], greater than 100 µM; in test [7], 95.3 µM. In addition, the TGI is greater than 100 µM in test [8]; greater than 100 µM in test [9]; 82.4 µM in test [10]; 86.3 µM in [11]; 43 µM in [12].
Take `NC1(CCNC(=O)c2ccccc2)CCN(C(=O)c2ccccc2)CC1`: the TGI in test [1], in test [2], in test [3], in test [4], in test [5] and in test [6] was greater than 100 µM throughout. Further, the TGI in test [7], in [9], in test [10], in test [11] and in test [12] was greater than 100 µM each time.
Regarding `CS(=O)(=O)N1CC(CCl)c2ccc(O)cc21` (centres undefined), the TGI in test [1] is 8.35 µM; in test [2], 12.3 µM; in [3] it was 11.3 µM; in test [4] it was 90.9 µM; in test [5], 7.6 µM; in test [6], 5.8 µM. Besides, the TGI was 17.4 µM in test [7]; 9.9 µM in [8]; 5.88 µM in [9]; 8.94 µM in test [10]; 11.5 µM in [12].

For the origin of these results see PubChem BioAssay (NCI).
